Results: patent publication US12686679B2, “Crystals of alkynyl-containing compound, salt and solvate thereof, preparation method, and applications” (GUANGZHOU HEALTHQUEST PHARMA CO., LTD., priority 2020, dated 2026)

Assays:
Type in all cases: physicochemical
[1] = Suspension stirring experiment of crystal form I (stability in different solvents); conditions: for 50° C. suspension (solid form) / Room temperature suspension (solid form): stirred 3 days
Protocol: (§1) Using X-ray powder diffractometer (Brooke D8 advance or D2 Phase) was used to characterize the solid. • Scanning angle: […]-40 (2θ). • Step size: 0.02° (2θ). • Scan speed: 0.3 sec/step (D8), 0.2 sec/step (D2). • Light tube voltage: 40 KV (D8), 30 KV (D2). • Light tube current: 40 mA (D8), 10 mA (D2). • Rotation: On. • Sample tray: zero background sample tray. TGA
Weigh the sample crystal form I and place it in a sample bottle, and then add a solvent to prepare a suspension. The resulting suspension is stirred at room temperature and 50° C. for 3 days, then filtered and collected the solid, and the solid is characterized.

[2] = Stability test of crystal form I (different temperature, humidity and light)
Protocol: as §1
The stability of the crystal form I prepared in Examples 1-13 was studied. Before the test, the single impurities of the crystal form I were less than 0.05%, and the total impurities were less than 0.05%.
Place the crystal form I under 60° C., high humidity, and light conditions, and sample at 0 days/5 days/10 days to investigate its content and related substances. The lighting conditions are: total illuminance: ≥1.2×106 Lux·hr, near ultraviolet energy ≥200 w·hr/m2.

[3] = Hygroscopicity test of crystal form I, dynamic moisture adsorption (DVS)
Protocol: (§2) DVS analysis of solids using IGASORP dynamic water adsorption instrument. • temperature: 25° C. • airflow: 250 mL/min. • Scan loop: 2. • Minimum test time: 30 min. • Longest test time: 2 h. • Waiting for balance: 98%. PLM
The hygroscopicity of the crystal form I prepared in Examples 1-13 was studied, and 10 mg of the crystal form I was taken for a dynamic moisture adsorption (DVS) test.

[4] = Suspension stirring experiment of crystal form II (stability in different solvents); conditions: for Room temperature suspension (solid form) / 50° C. suspension (solid form): stirred 3-4 days
Protocol: as §1
The resulting suspension is stirred at room temperature and 50° C. for 3-4 days, then filtered and collected the solid. After vacuum drying at room temperature, the solid was characterized.

[5] = Stability test of crystal form II (different temperature and humidity)
[6] = Hygroscopicity study of crystal form II, dynamic moisture adsorption (DVS); conditions: for DVS (90% RH): moisture absorption at 90% relative humidity (RH), 25° C.
Protocol: as §2
The crystalline form II prepared in Example 21 was used to conduct a moisture absorption study, and about 10 mg of crystalline form II was taken for a dynamic moisture adsorption (DVS) test. The conclusions are described in Table 24 below

[7] = 0 day (before the test), listed as Form I
[8] = 0 day (before the test), listed as crystal form I
[9] = 60° C., high humidity and light conditions on 5 and 10 days
[10] = 0 day (before the test), listed as crystal form II
[11] = 60° C. and high humidity in 5 and 10 days

Cc1ccc(C(=O)Nc2ccc(CN3CCN(C)CC3)c(C(F)(F)F)c2)cc1C#Cc1cnc2[nH]ncc2c1 [Crystal form I, 3-((1H-pyrazolo[3,4-b]pyridin-5-yl)ethynyl)-4-methyl-N-(4-((4-methylpiperazine-1-yl)methyl)-3-(trifluoromethyl)phenyl) benzamide]
0.12%: DVS (90% RH) ([3]; 90% RH, 25° C.)
not easy to absorb water: hygroscopicity (conclusion) ([3]; during storage)
101.2%: content ([2]; 0 day)
good stability: stability in a variety of solvents (conclusion) ([1]; suspension stirring, room temperature and 50° C.) | stability (conclusion) ([2]; 60° C., high humidity and light conditions, 5 and 10 days)
100.4%: content ([2]; 10 days-light)
less than 0.05%: Single impurity [2, 8] | Total impurities [2, 8] | single impurity content [2, 9] | total impurity content [2, 9]
101.5%: content ([2]; 5 days-light)
<0.05%: Single impurity [2, 7] | Total impurities [2, 7] | Single impurity ([2]; 5 days-60° C.) | Total impurities ([2]; 5 days-60° C.) | Single impurity ([2]; 5 days-high humidity) | Total impurities ([2]; 5 days-high humidity) | Single impurity ([2]; 5 days-light) | Total impurities ([2]; 5 days-light) | Single impurity ([2]; 10 days-60° C.) | Total impurities ([2]; 10 days-60° C.) | Single impurity ([2]; 10 days-high humidity) | Total impurities ([2]; 10 days-high humidity) | Single impurity ([2]; 10 days-light) | Total impurities ([2]; 10 days-light)
~100%: content [2, 9]
101.4%: content ([2]; 5 days-high humidity)
Form I: 50° C. suspension (solid form) ([1]; Acetone) | Room temperature suspension (solid form) ([1]; Acetone) | 50° C. suspension (solid form) ([1]; Acetonitrile) | Room temperature suspension (solid form) ([1]; Acetonitrile) | 50° C. suspension (solid form) ([1]; Acetonitrile:water 1:1 (v:v)) | Room temperature suspension (solid form) ([1]; Acetonitrile:water 1:1 (v:v)) | 50° C. suspension (solid form) ([1]; Butanone) | Room temperature suspension (solid form) ([1]; Butanone) | 50° C. suspension (solid form) ([1]; Ethanol) | Room temperature suspension (solid form) ([1]; Ethanol) | 50° C. suspension (solid form) ([1]; Ethyl acetate) | Room temperature suspension (solid form) ([1]; Ethyl acetate) | 50° C. suspension (solid form) ([1]; Isopropanol) | Room temperature suspension (solid form) ([1]; Isopropanol) | 50° C. suspension (solid form) ([1]; Isopropyl acetate) | Room temperature suspension (solid form) ([1]; Isopropyl acetate) | 50° C. suspension (solid form) ([1]; Methanol) | Room temperature suspension (solid form) ([1]; Methanol) | 50° C. suspension (solid form) ([1]; Methyl tert-butyl ether) | Room temperature suspension (solid form) ([1]; Methyl tert-butyl ether) | XPRD ([2]; 0 day) | XPRD ([2]; 5 days-60° C.) | XPRD ([2]; 5 days-high humidity) | XPRD ([2]; 5 days-light) | XPRD ([2]; 10 days-60° C.) | XPRD ([2]; 10 days-high humidity) | XPRD ([2]; 10 days-light)
Unchanged: DVS XRPD ([3]; XRPD after DVS)
100.9%: content ([2]; 10 days-high humidity)
100.8%: content ([2]; 5 days-60° C.) | content ([2]; 10 days-60° C.)

Cc1ccc(C(=O)Nc2ccc(CN3CCN(C)CC3)c(C(F)(F)F)c2)cc1C#Cc1cnc2[nH]ncc2c1.O=C(O)/C=C/C(=O)O [Crystal form II, 3-((1H-pyrazolo[3,4-b]pyridin-5-yl)ethynyl)-4-methyl-N-(4-((4-methylpiperazine-1-yl)methyl)-3-(trifluoromethyl)phenyl) benzamide fumarate]
99.2%: content ([5]; 10 days-60° C.)
99.5%: content ([5]; 5 days-60° C.)
Crystal Form XIV: 50° C. suspension (solid form) ([4]; Acetone:water 1:2 (v:v))
less than 0.05: The content (single impurity) [5, 11] | total impurity content [5, 11]
≥ 98.5%: content [5, 11]
Crystal Form II: Room temperature suspension (solid form) ([4]; 1,4-dioxane) | 50° C. suspension (solid form) ([4]; Acetonitrile) | Room temperature suspension (solid form) ([4]; Acetonitrile) | 50° C. suspension (solid form) ([4]; Ethyl acetate) | Room temperature suspension (solid form) ([4]; Ethyl acetate) | 50° C. suspension (solid form) ([4]; Isopropanol) | Room temperature suspension (solid form) ([4]; Isopropanol) | Room temperature suspension (solid form) ([4]; Isopropyl acetate) | Room temperature suspension (solid form) ([4]; Methanol:water 3:1 (v:v)) | Room temperature suspension (solid form) ([4]; N-heptane) | 50° C. suspension (solid form) ([4]; Tetrahydrofuran) | Room temperature suspension (solid form) ([4]; Tetrahydrofuran) | 50° C. suspension (solid form) ([4]; ethanol) | Room temperature suspension (solid form) ([4]; ethanol) | 50° C. suspension (solid form) ([4]; methanol) | Room temperature suspension (solid form) ([4]; methanol) | XPRD ([5]; 0 day) | XPRD ([5]; 5 days-60° C.) | XPRD ([5]; 5 days-high (high humidity)) | XPRD ([5]; 10 days-60° C.) | XPRD ([5]; 10 days-high (high humidity))
not easy to absorb water: hygroscopicity (conclusion) ([6]; during storage)
99.4%: content ([5]; 5 days-high (high humidity))
98.7%: content ([5]; 0 day)
99.0%: content ([5]; 10 days-high (high humidity))
good stability: stability at room temperature and 50° C. (conclusion) ([4]; suspension stirring in solvents) | stability (conclusion) ([5]; 60° C. and high humidity, 5 and 10 days)
Unchanged: XRPD before and after DVS ([6]; listed as Crystal Form II)
<0.05%: Single impurity ([5]; 0 day (before the test)) | Total impurities ([5]; 0 day (before the test)) | Single impurity ([5]; 5 days-60° C.) | Total impurities ([5]; 5 days-60° C.) | Single impurity ([5]; 5 days-high (high humidity)) | Total impurities ([5]; 5 days-high (high humidity)) | Single impurity ([5]; 10 days-60° C.) | Total impurities ([5]; 10 days-60° C.) | Single impurity ([5]; 10 days-high (high humidity)) | Total impurities ([5]; 10 days-high (high humidity))
has not changed: XRPD before and after DVS ([6]; listed as crystal form II)
1.66%: DVS (90% RH) ([6]; listed as Crystal Form II) | DVS (90% RH) ([6]; listed as crystal form II)
less than 0.05%: Single impurity [5, 10] | Total impurities [5, 10]
